Tested on: 855422-203-R-J1-PDC complex spheroid viability
Experiment: Anticancer human tumor 855422-203-R-J1-PDC patient-derived bladder carcinoma cell line growth inhibition [POLQ]
Conditions: for IC50: curve of first compound; for viability, T/C: stronger effect = lower value
How it was run: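 Complex spheroid viability model combining PDC tumour cells with endothelial (HUVEC) and MSC stromal cells. Novobiocin, ART-558 or RP6685 were tested singly and in combination with standard and investigational anticancer drugs. Each was titrated in half-log steps from near clinical Cmax, or from 10 microM where Cmax was unknown.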

[1] = second compound 0.0316 µM, first compound 0.0316 µM
[2] = second compound 0.0316 µM, first compound 0.1 µM
[3] = second compound 0.0316 µM, first compound 0.316 µM
[4] = second compound 0.0316 µM, first compound 1 µM
[5] = second compound 0.0316 µM, first compound 3.16 µM
[6] = second compound 0.0316 µM, first compound 10 µM
[7] = second compound 0.1 µM, first compound 0.0316 µM
[8] = second compound 0.1 µM, first compound 0.1 µM
[9] = second compound 0.1 µM, first compound 0.316 µM
[10] = second compound 0.1 µM, first compound 1 µM
[11] = second compound 0.1 µM, first compound 3.16 µM
[12] = second compound 0.1 µM, first compound 10 µM
[13] = second compound 0.316 µM, first compound 0.0316 µM
[14] = second compound 0.316 µM, first compound 0.1 µM
[15] = second compound 0.316 µM, first compound 0.316 µM
[16] = second compound 0.316 µM, first compound 1 µM
[17] = second compound 0.316 µM, first compound 3.16 µM
[18] = second compound 0.316 µM, first compound 10 µM
[19] = second compound 1 µM, first compound 0.0316 µM
[20] = second compound 1 µM, first compound 0.1 µM
[21] = second compound 1 µM, first compound 0.316 µM
[22] = second compound 1 µM, first compound 1 µM
[23] = second compound 1 µM, first compound 3.16 µM
[24] = second compound 1 µM, first compound 10 µM
[25] = second compound 3.16 µM, first compound 0.0316 µM
[26] = second compound 3.16 µM, first compound 0.1 µM
[27] = second compound 3.16 µM, first compound 0.316 µM
[28] = second compound 3.16 µM, first compound 1 µM
[29] = second compound 3.16 µM, first compound 3.16 µM
[30] = second compound 3.16 µM, first compound 10 µM
[31] = second compound 10 µM, first compound 0.0316 µM
[32] = second compound 10 µM, first compound 0.1 µM
[33] = second compound 10 µM, first compound 0.316 µM
[34] = second compound 10 µM, first compound 1 µM
[35] = second compound 10 µM, first compound 3.16 µM
[36] = second compound 10 µM, first compound 10 µM
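Also: spheroids exposed to compounds for seven days before readout.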

## COc1cc2cc(C(=O)CCC(=O)O)sc2cc1OC + COC1C(OC(N)=O)C(O)C(Oc2ccc3c(O)c(NC(=O)c4ccc(O)c(CC=C(C)C)c4)c(=O)oc3c2C)OC1(C)C
Second compound 0.0316 µM
  IC50: > 10 µM
Second compound 0.1 µM
  IC50: > 10 µM
Second compound 0.316 µM
  IC50: > 10 µM
Second compound 1 µM
  IC50: > 10 µM
Second compound 3.16 µM
  IC50: > 10 µM
Second compound 10 µM
  IC50: > 10 µM
[1]
  viability, T/C: 105%
[2]
  viability, T/C: 97.2%
[3]
  viability, T/C: 115%
[4]
  viability, T/C: 106%
[5]
  viability, T/C: 99.8%
[6]
  viability, T/C: 101%
[7]
  viability, T/C: 83.2%
[8]
  viability, T/C: 111%
[9]
  viability, T/C: 105%
[10]
  viability, T/C: 98.8%
[11]
  viability, T/C: 111%
[12]
  viability, T/C: 88.2%
[13]
  viability, T/C: 115%
[14]
  viability, T/C: 101%
[15]
  viability, T/C: 110%
[16]
  viability, T/C: 106%
[17]
  viability, T/C: 113%
[18]
  viability, T/C: 101%
[19]
  viability, T/C: 104%
[20]
  viability, T/C: 105%
[21]
  viability, T/C: 90.5%
[22]
  viability, T/C: 109%
[23]
  viability, T/C: 99.5%
[24]
  viability, T/C: 94.6%
[25]
  viability, T/C: 98%
[26]
  viability, T/C: 102%
[27]
  viability, T/C: 110%
[28]
  viability, T/C: 111%
[29]
  viability, T/C: 114%
[30]
  viability, T/C: 86.4%
[31]
  viability, T/C: 104%
[32]
  viability, T/C: 107%
[33]
  viability, T/C: 105%
[34]
  viability, T/C: 104%
[35]
  viability, T/C: 95.7%
[36]
  viability, T/C: 82.8%

## CC1COCCN1c1cc(C2(O)CC3CCC(C2)O3)c2cnn(-c3ccn[nH]3)c2n1 (stereo not drawn) + Cc1cccc(N(C)C(=O)C2C(O)CCN2c2nc(C)cc(C(F)(F)F)c2C#N)c1
Second compound 0.0316 µM
  IC50: 0.0938 µM
Second compound 0.1 µM
  IC50: 0.0901 µM
Second compound 0.316 µM
  IC50: 0.0882 µM
Second compound 1 µM
  IC50: 0.0898 µM
Second compound 3.16 µM
  IC50: 0.0911 µM
Second compound 10 µM
  IC50: 0.0834 µM
[1]
  viability, T/C: 109%
[2]
  viability, T/C: 46.7%
[3]
  viability, T/C: 14.1%
[4]
  viability, T/C: 9.62%
[5]
  viability, T/C: 6.47%
[6]
  viability, T/C: 3.79%
[7]
  viability, T/C: 91.8%
[8]
  viability, T/C: 45.9%
[9]
  viability, T/C: 12.6%
[10]
  viability, T/C: 9%
[11]
  viability, T/C: 6.6%
[12]
  viability, T/C: 4.11%
[13]
  viability, T/C: 104%
[14]
  viability, T/C: 43.5%
[15]
  viability, T/C: 16.4%
[16]
  viability, T/C: 8.37%
[17]
  viability, T/C: 6.11%
[18]
  viability, T/C: 3.68%
[19]
  viability, T/C: 95%
[20]
  viability, T/C: 45.5%
[21]
  viability, T/C: 13.2%
[22]
  viability, T/C: 9.4%
[23]
  viability, T/C: 5.77%
[24]
  viability, T/C: 3.51%
[25]
  viability, T/C: 97.5%
[26]
  viability, T/C: 45.8%
[27]
  viability, T/C: 10.4%
[28]
  viability, T/C: 9.18%
[29]
  viability, T/C: 6.79%
[30]
  viability, T/C: 4.13%
[31]
  viability, T/C: 83.4%
[32]
  viability, T/C: 44%
[33]
  viability, T/C: 15.1%
[34]
  viability, T/C: 9.77%
[35]
  viability, T/C: 7.49%
[36]
  viability, T/C: 2.55%

## CC(C)n1c(=O)n(C)c2cnc3cc(F)c(-c4ccc(OCCCN5CCCCC5)nc4)cc3c21 + Nc1ccc(C#CCN(C(=O)Cc2ncc(C(F)(F)F)cc2C(F)(F)F)c2ccc(F)cc2)nn1
Second compound 0.0316 µM
  IC50: > 10 µM
Second compound 0.1 µM
  IC50: > 10 µM
Second compound 0.316 µM
  IC50: > 10 µM
Second compound 1 µM
  IC50: > 10 µM
Second compound 3.16 µM
  IC50: > 10 µM
Second compound 10 µM
  IC50: > 10 µM
[1]
  viability, T/C: 100%
[2]
  viability, T/C: 123%
[3]
  viability, T/C: 110%
[4]
  viability, T/C: 94.2%
[5]
  viability, T/C: 99.9%
[6]
  viability, T/C: 107%
[7]
  viability, T/C: 99.4%
[8]
  viability, T/C: 140%
[9]
  viability, T/C: 97.2%
[10]
  viability, T/C: 94.4%
[11]
  viability, T/C: 100%
[12]
  viability, T/C: 93.5%
[13]
  viability, T/C: 96.5%
[14]
  viability, T/C: 128%
[15]
  viability, T/C: 96.3%
[16]
  viability, T/C: 99.3%
[17]
  viability, T/C: 97%
[18]
  viability, T/C: 96.1%
[19]
  viability, T/C: 91.8%
[20]
  viability, T/C: 120%
[21]
  viability, T/C: 95.1%
[22]
  viability, T/C: 99.2%
[23]
  viability, T/C: 101%
[24]
  viability, T/C: 91.3%
[25]
  viability, T/C: 97.9%
[26]
  viability, T/C: 148%
[27]
  viability, T/C: 98%
[28]
  viability, T/C: 106%
[29]
  viability, T/C: 103%
[30]
  viability, T/C: 92.1%
[31]
  viability, T/C: 104%
[32]
  viability, T/C: 101%
[33]
  viability, T/C: 91.3%
[34]
  viability, T/C: 100%
[35]
  viability, T/C: 101%
[36]
  viability, T/C: 82.8%

## CCc1cc2c(N3CCc4c(cc(Cn5ccnc5)cc4-c4cn(C)nc4C(F)(F)F)C3=O)ccnc2c(OC)n1 + Cc1cccc(N(C)C(=O)C2C(O)CCN2c2nc(C)cc(C(F)(F)F)c2C#N)c1
Second compound 0.0316 µM
  IC50: 7.34 µM
Second compound 0.1 µM
  IC50: > 10 µM
Second compound 0.316 µM
  IC50: > 10 µM
Second compound 1 µM
  IC50: > 10 µM
Second compound 3.16 µM
  IC50: 9.2 µM
Second compound 10 µM
  IC50: 9.15 µM
[1]
  viability, T/C: 111%
[2]
  viability, T/C: 154%
[3]
  viability, T/C: 110%
[4]
  viability, T/C: 96.3%
[5]
  viability, T/C: 70.9%
[6]
  viability, T/C: 42.2%
[7]
  viability, T/C: 99.9%
[8]
  viability, T/C: 147%
[9]
  viability, T/C: 113%
[10]
  viability, T/C: 85.7%
[11]
  viability, T/C: 79.6%
[12]
  viability, T/C: 47.5%
[13]
  viability, T/C: 102%
[14]
  viability, T/C: 151%
[15]
  viability, T/C: 107%
[16]
  viability, T/C: 107%
[17]
  viability, T/C: 80.4%
[18]
  viability, T/C: 54.2%
[19]
  viability, T/C: 125%
[20]
  viability, T/C: 162%
[21]
  viability, T/C: 110%
[22]
  viability, T/C: 90%
[23]
  viability, T/C: 79.7%
[24]
  viability, T/C: 51.5%
[25]
  viability, T/C: 138%
[26]
  viability, T/C: 166%
[27]
  viability, T/C: 103%
[28]
  viability, T/C: 115%
[29]
  viability, T/C: 74.7%
[30]
  viability, T/C: 47.8%
[31]
  viability, T/C: 116%
[32]
  viability, T/C: 141%
[33]
  viability, T/C: 158%
[34]
  viability, T/C: 112%
[35]
  viability, T/C: 88.3%
[36]
  viability, T/C: 46.3%
